Source: US12435084B2, “Indazole derivatives as inhibitors of SARM1” (Disarm Therapeutics, Inc., priority 2020, dated 2025)

target: T1, SARM1 (Homo sapiens, UniProt Q6SZW1); test: ARM-SAM-TIR SARM1 IC50 assay (NADase activity, NAD+ cleavage, RapidFire mass spectrometry); format: biochemical; settings: ARM-SAM-TIR lysate 5 μg/mL, 2 h pre-incubation with compound at room temperature, 5 μM NAD+, 2 hr incubation
T1 construct: made in house; host or cells: NRK1-HEK293T cells, transient transfection; cleared cell lysate used without purification
T1 sequence (Q6SZW1 with tags, fused parts or gaps): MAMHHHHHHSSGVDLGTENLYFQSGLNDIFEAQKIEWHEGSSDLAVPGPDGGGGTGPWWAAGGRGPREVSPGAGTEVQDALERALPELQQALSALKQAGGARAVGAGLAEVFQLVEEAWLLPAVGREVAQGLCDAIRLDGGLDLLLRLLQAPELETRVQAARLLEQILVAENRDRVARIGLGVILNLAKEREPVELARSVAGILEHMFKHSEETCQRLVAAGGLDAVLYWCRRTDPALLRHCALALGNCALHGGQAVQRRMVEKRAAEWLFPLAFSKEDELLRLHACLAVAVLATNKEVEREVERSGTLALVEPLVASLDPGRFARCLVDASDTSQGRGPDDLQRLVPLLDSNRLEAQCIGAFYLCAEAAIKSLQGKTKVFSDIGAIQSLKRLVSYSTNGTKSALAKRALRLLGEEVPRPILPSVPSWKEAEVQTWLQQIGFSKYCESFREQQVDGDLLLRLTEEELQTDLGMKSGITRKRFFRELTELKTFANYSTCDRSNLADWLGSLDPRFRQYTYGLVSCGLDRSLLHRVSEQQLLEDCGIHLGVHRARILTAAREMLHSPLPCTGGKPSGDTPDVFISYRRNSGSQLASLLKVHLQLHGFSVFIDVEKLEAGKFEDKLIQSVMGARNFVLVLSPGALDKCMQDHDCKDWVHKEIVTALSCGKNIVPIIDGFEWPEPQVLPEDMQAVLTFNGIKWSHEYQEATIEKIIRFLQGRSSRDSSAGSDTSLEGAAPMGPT
Description: This Example describes an assay of ARM-SAM-TIR NADase activity and use of this assay to measure the efficacy of compounds of Formula I/II to block SARM1 mediated NAD+ cleavage. This assay was optimized in such a way as to characterize the efficacy of the compounds in Formula I/I to inhibit SARM1 activity and to calculate an IC50 value for each compound. This assay makes use of full length SARM1, which encompasses the ARM, SAM and TIR domains. […] NRK1-HEK293T cells were seeded onto 150 cm^2 plates at 20×10^6 cells per plate. The next day, the cells were transfected with […] ARM-SAM-TIR expression plasmid, SEQ ID NO: 1. The cultures were supplemented with 1 mM NR at time of transfection to minimize toxicity from ARM-SAM-TIR overexpression. Forty-eight hours after transfection, cells were harvested, pelleted by centrifugation at 1,000 rpm (Sorvall ST 16R centrifuge, Thermo Fisher), and washed once with cold PBS (0.01 M phosphate buffered saline NaCl 0.138 M; KCl 0.0027 M; pH 7.4). The cells were resuspended in PBS with protease inhibitors (cOmplete™ protease inhibitor cocktail, Roche product #11873580001) and cell lysates were prepared by sonication (Branson Sonifer 450, output=3, 20 episodes of stroke). The lysates were centrifuged (12,000×g for 10 min at 4° C.) to remove cell debris and the supernatants (containing ARM-SAM-TIR protein) were stored at −80° C. for later use in the in vitro ARM-SAM-TIR NADase assay (see below). Protein concentration was determined by the Bicinchoninic (BCA) method and used to normalize lysate concentrations. The enzymatic assay was performed in a 384-well polypropylene plate in Dulbecco's PBS buffer in a final assay volume of 20 μL. […] The reaction was initiated by addition of 5 μM final assay concentration of NAD+ as substrate. After a 2 hr room temperature incubation, the reaction was terminated with 40 μL of stop solution of 7.5% trichloroactetic acid in acetonitrile. The NAD+ and ADPR concentrations were analyzed by a RapidFire High Throughput Mass Spectrometry System (Agilent Technologies, Santa Clara, CA) using an API4000 triple quadrupole mass spectrometer (AB Sciex Framingham, MA).

Q: How did the IC50 turn out when O=C(NCc1ccc(Cl)s1)c1cccc2c(-c3ccncc3)n[nH]c12 [Example 17] was run?
A: < 100 nM

Q: With O=C(NCc1ccc(Cl)cc1)c1cccc2c(-c3cnc[nH]3)n[nH]c12 [Example 18] as the molecule, how does the IC50 read?
A: > 10000 nM

Q: For O=C(NCc1ccc(Cl)cc1)c1cccc2c(-c3cnco3)n[nH]c12 [Example 21], which IC50 is on record?
A: > 10000 nM

Q: With Cc1cc(C(=O)NCc2ccc(Cl)nc2)c2[nH]nc(-c3ccncc3)c2c1 [Example 25] as the molecule, how does the IC50 read?
A: 100 to 1000 nM

Q: Cn1cncc1-c1n[nH]c2c(C(=O)NCc3ccc(Cl)cc3)cccc12 [Example 20] was tested. Which IC50 did it give?
A: > 10000 nM

Q: How did the IC50 turn out when C[C@@H](NC(=O)c1cccc2c(-c3ccncc3)n[nH]c12)c1ccc(Cl)cc1 [Example 15] was run?
A: 100 to 1000 nM

Q: With O=C(NCc1ccc(Cl)c(F)c1)c1cccc2c(-c3ccncc3)n[nH]c12 [Example 16] as the molecule, how does the IC50 read?
A: < 100 nM

Q: With Cc1ccc(C(=O)NCc2ccc(Cl)nc2)c2[nH]nc(-c3ccncc3)c12 [Example 24] as the molecule, how does the IC50 read?
A: 1010 to 5000 nM

Q: For O=C(NCc1ccc(Cl)cc1)c1nccc2c(-c3ccncc3)n[nH]c12 [Example 14], which IC50 is on record?
A: < 100 nM

Q: Which IC50 does the source give for O=C(NCc1ccc(Cl)cc1)c1cccc2c(-c3cncs3)n[nH]c12 [Example 19] here?
A: > 10000 nM
